Assay results published in patent US20200253922A1, “METHODS FOR NON-[…] ADMINISTRATION OF CANNABINOIDS USING SOFT MIST […]” (Molecular Infusions, LLC, priority 2019, published 2020).
Like-named read-outs stand apart in the source and are kept apart here.

Columns and labels:
[1] = Solubility of Δ9-THC and CBD in a solution of ethanol and saline at room temperature
Protocol: FIG. 5 is a photograph of 2% w/w Δ9-THC and 2% w/w CBD in solutions of 10%, 20%, 30%, 40% and 50% (w/w) saline in ethanol. Δ9-THC and CBD were soluble in solutions of up to 30% and 40% (w/w) saline, respectively.
As shown in FIG. 5 the solubility of Δ9-THC and CBD in a solution of ethanol and saline was investigated. […] A 2% w/w solution of CBD was prepared at room temperature in solutions of 10%, 20%, 30%, 40%, or 50% (w/w) saline in ethanol. 2% w/w CBD was soluble at room temperature in ethanol solutions of up to 40% saline. In a separate experiment, the absolute solubility of Δ9-THC in ethanol solutions containing 30%w/w saline was determined to be ˜8%w/w (data not shown).

[2] = Terpene solubility assessment in base formulation of 10% Saline, 20% Water, 70% Ethanol; assay type: physicochemical; details: for Visual Observation: mixed overnight at room temperature
Protocol: The base formulation was prepared in bulk and 15 g aliquots were transferred to 22 ml scintillation vials. Pure, botanically derived terpenes were purchased from commercial sources.

[3] = acidic form; cited from earlier work
patients = details: aerosol formulation; cited from earlier work
asthmatic patients = details: metered dose inhaler, cited from earlier work
[4] = Fine particle fraction by Fast Screening Impactor, Respimat device, 28.3 L/min; assay type: physicochemical
Source text: An abbreviated impactor set-up, Copley Scientific's ‘Fast Screening Impactor’ (FSI), was used to determine the FPF within liquid aerosols (Mitchell et al. AAPS PharmSciTech. 2009;10(1):252-7). The FSI consisted of the universal induction port (UIP), course fraction collector (pre-separator and insert with a 5 μm diameter cut-off @ 28.3 L/min), and fine particle fraction collector consisting of a holder and glass fiber filter. The system was assembled along with a Copley LC5 pump. The flow rate was set by attaching a flow meter to the inlet of the induction port and adjusting the flow control valve on the LC5 vacuum pump until the flow rate through the system was 28.3 L/min +/−5%. Measurements were performed under ambient laboratory conditions (˜60% RH, 72° F.). The Respimat device was primed and attached to the UIP using a mouthpiece adapter. With the vacuum pump running, the device was actuated followed by a 30 second hold before turning off the vacuum pump. The Respimat device was re-primed and another dose was collected in the FSI. To determine the amount of cannabinoids deposited in each stage, the FSI was dismantled and each stage was extracted with 10 ml of methanol. Samples were diluted and HPLC performed to quantify the mass of cannabinoids deposited in the USP throat, coarse fraction collector, and fine particle fraction collector.

healthy volunteers = details: doses greater than 2 mg, PARI nebulizer, eight healthy volunteers, all patients; cited from earlier work
Volunteers = assay: User feedback on tolerability of Δ9-THC distillate in ethanol delivered via […]; assay type: in vivo, human; details: in 200 proof ethanol, RESPIMAT
Source text: Volunteers reported that 200 proof ethanol (placebo) delivered using the […]® device as non-irritating. It was observed that the cannabinoid, Δ9-THC in the ethanol solution, induced irritation that was dose dependent as shown in Table 1 below:
The irritation was caused by cannabinoid deposition at mucosal membranes in the throat and upper airways. The lung deposition profile is affected by multiple factor including FPF as well as user inhalation technique. For example, it has been shown that the timing of inhalation and actuation as well as the posture of the user's head can have an impact on lung deposition. It is also important to note that in vitro impactor studies commonly underestimate dose deposition in the throat and overestimate the dose deposited in the lungs (Wei et al. (2018), Journal of Aerosol Medicine and Pulmonary Drug Delivery 31(0): 1-14).

subjects = details: 5 mg dose via pMDI; cited from earlier work

In the case of C=C(C)[C@@H]1CCC(C)=C[C@H]1c1c(O)cc(CCCCC)cc1O [CBD, Cannabidiol], the “observation of 2% w/w solution” value ([1]; 50% (w/w) saline solution) is reported as “precipitate”.

For CC12CCC(CC1)C(C)(C)O2 [Eucalyptol], the “Visual Observation” value ([2]; Target Concentration 0.06% w/w) was “Clear, colorless”, the “Visual Observation” value ([2]; Target Concentration 0.24% w/w) was “Hazy, not fully” and the “Visual Observation” value ([2]; Target Concentration […] w/w) was “Clear, colorless”.

With C=CC(C)(O)CCC=C(C)C (stereo not shown) [Linalool] the “Visual Observation” value ([2]; Target Concentration 0.06% w/w) was “Clear, colorless”, the “Visual Observation” value ([2]; Target Concentration 0.24% w/w) was “Hazy, not fully” and the “Visual Observation” value ([2]; Target Concentration […] w/w) was “Clear, colorless”.

With CC1=CCC(=C(C)C)CC1 [Terpinolene] the “Visual Observation” value ([2]; Target Concentration 0.06% w/w) was “Clear, colorless”, the “Visual Observation” value ([2]; Target Concentration 0.24% w/w) was “Hazy, not fully” and the “Visual Observation” value ([2]; Target Concentration […] w/w) was “Clear, colorless”.

For O=C1NS(=O)(=O)c2ccccc21 [saccharin], the pKa [3] is given as ~1.9.

For CCCCCc1cc(O)c2c(c1)OC(C)(C)C1CC=C(C)CC21 (stereo not shown) [Δ8-THC, delta-8-tetrahydrocannabinol], the cough reaction (patients) is given as “causing patients to cough”.

In the case of CCCCCc1cc(O)c2c(c1)OC(C)(C)[C@@H]1CCC(C)=C[C@@H]21 [Δ9-THC, Delta-9-tetrahydrocannabinol], the “tolerability of aerosol delivery to the lungs” value (asthmatic patients; 0.2 mg) is given as “tolerable”, the “tolerability of aerosol delivery to the lungs” value (asthmatic patients; doses higher than 0.2 mg) is given as “irritating and induced coughing” and the “% dose in FPF” value ([4]; dose 0.35 mg) is given as 76%. The “% dose in FPF” value ([4]; dose 0.6 mg) was 76%, the “% dose in FPF” value ([4]; dose 1 mg) was 77% and the “% dose in FPF” value ([4]; dose 2 mg) was 78%. The “irritation reported after inhalation, compared to a placebo formulation” value (healthy volunteers) was “significant irritation of the throat and upper respiratory tract”, the User experience (Volunteers; dose 0.35 mg) was “Most tolerable: Cough may occur, mild irritation of” and the User experience (Volunteers; dose 0.6 mg) was “Harsh: Mild cough with mild throat/upper airway”. The User experience (Volunteers; dose 1 mg) was “Harsh: Coughing with throat/upper airway irritation”, the User experience (Volunteers; dose 2 mg) was “Extremely harsh: Coughing with throat/upper airway” and the “saline content of ethanol solution up to which 2% w/w is soluble” value ([1]; 2% w/w, room temperature, 10-50% (w/w) saline in ethanol tested) was “up to 30 % (w/w) saline”. For the same compound, the “observation of 2% w/w solution” value ([1]; 40% and 50% (w/w) saline solutions) was “form a separate liquid phase (oiling out)”, the absolute solubility ([1]; ethanol solutions containing 30%w/w saline, data not shown) was ~8 %w/w and the “subjects with side effects including cough and/or chest discomfort” value (subjects) was 3 out of 11.

For C=C1CC/C=C(\C)CC[C@@H]2[C@@H]1CC2(C)C [β-caryophyllene], the “Visual Observation” value ([2]; Target Concentration 0.06% w/w) was “Clear, colorless”, the “Visual Observation” value ([2]; Target Concentration 0.24% w/w) was “Hazy, not fully” and the “Visual Observation” value ([2]; Target Concentration […] w/w) was “Clear, colorless”.

In the case of C=CC(=C)CCC=C(C)C [β-myrcene], the “solubility at the lowest percentage tested” value ([2]; 0.06% w/w) is reported as “not soluble”, the “Visual Observation” value ([2]; Target Concentration 0.06% w/w) is reported as “Hazy, not fully” and the “Visual Observation” value ([2]; Target Concentration 0.24% w/w) is reported as “Hazy, not fully”. For the same compound, the “Visual Observation” value ([2]; Target Concentration […] w/w) was “Hazy, not fully”.
